These are literature values, as cited in article PMC9959726 (Molecules, 2023).

The subject of one series is BEAS-2B and HepG2 cells. Particulars: PM2.5-induced BEAS-2B and HepG2 cells.
For another series, the system named is CYP-1A2. Also on record: method as in PMID 34377680. To be noted: for Effect on CYP 1A2: from P. anisum root.
A further series relates to MCF-7 cells. Details: method as in PMID 29959054. Particulars: from P. haussknechtii fruit; read-out: Cytotoxicity against MCF-7 cell, IC50.
For series [1] the following is noted: from P. thellungiana.
The test system of a further series is DNA. Particulars: compounds obtained from P. saxifraga.
For series [2] the following is noted: for antioxidant activity: compounds obtained from P. saxifraga; for antioxidant property: from P. brachycarpa.
The subject of the next series is α-glycosidase. To be noted: for α-glucosidase inhibitory: from P. candolleana; for α-glucosidase inhibition: from P. anthriscoides.
In another series the test system is AChE. Particulars: from P. anthriscoides.
The subject of another series is α-amylase. Particulars: from P. anthriscoides.
In the next series the test system is BChE. Particulars: from P. anthriscoides.
The test system of another series is pestiferous pests. Also on record: method as in PMID 29029251, PMID 29029346.
Details of series [3]: method as in PMID 30704124.

Like-named read-outs stand apart in the source and are kept apart here.

Take `CC=Cc1ccc(OC)cc1` (stereo in doubt) [compound 40, cis-anethole]: the “reduction of IL-8 level” value in the series with BEAS-2B and HepG2 cells is recorded as 87%. `COc1c2ccoc2cc2oc(=O)ccc12` [Bergapten (256)]: in the series on CYP-1A2, the “Effect on CYP 1A2” value is listed as “Inhibitory effects on CYP 1A2”. For the compound `CC(C)=CC(C)(O)C1OC(=O)Cc2oc(C)cc(=O)c21` (stereo not drawn) [Pimpinelol (205)], the IC50 with MCF-7 cells is 1060 nM.

Turning to `CCOC(c1cc(OC)ccc1O)C(C)O` (stereo not drawn) [compound 1, 2-(1′-ethoxy-2′-hydroxy)propyl-4-methoxyphenol], in series [1], the antihypertensive activity entry is reported as “significant antihypertensive activity”. For `CCOC(c1cc(OC)ccc1OC(=O)C(C)CC)C(C)O` (stereo not drawn) [compound 2, 2-(1′-ethoxy-2′-hydroxy)propyl-4-methoxyphenyl-2-methyl-butyrate], in series [1], the antihypertensive activity entry is listed as “significant antihypertensive activity”. Regarding `COC(=O)/C=C/c1ccccc1O` [compound 48, methyl-O-coumarate], the DNA protection potential entry in the series with DNA is reported as “DNA protection potential”. Moreover, the antioxidant activity result in [2] was “antioxidant activity”. `CCC(=O)c1ccc(OC)cc1O` [compound 49, 1-(2-hydroxy-4-methoxyphenyl)propan1-one]: in the series with DNA, the DNA protection potential entry was “DNA protection potential”. In addition, in series [2], the antioxidant activity result was “antioxidant activity”. Take `COc1ccc(C=CC=O)cc1` [compound 50, 4-methoxycinnamaldehyde]: in the series on DNA, the DNA protection potential result is “DNA protection potential”. In addition, the antioxidant activity entry in series [2] was “antioxidant activity”.

Take `C=CCc1cc2c(c(OC)c1OC)OCO2` [compound 51, dillapiole]: the DNA protection potential result in the series on DNA was “DNA protection potential”. Moreover, in [2], the antioxidant activity result is “antioxidant activity”.

For the compound `COc1c2ccoc2cc2oc(=O)ccc12` [compound 256, bergapten], the CYP-1A2 inhibition result in the series with CYP-1A2 was “inhibitors”.

Turning to `COc1c2ccoc2c(OC)c2oc(=O)ccc12` [compound 274, isopimpinellin], the CYP-1A2 inhibition entry with CYP-1A2 is “inhibitors”. As to `CCC(C=CC(C)C1CCC2C3CC=C4CC(OC(C)=O)CCC4(C)C3CCC12C)C(C)C` (stereo not drawn) [compound 294, Stigmasta-5, 22-dien-3-olacetate], the antioxidant entry in series [2] (from P. candolleana) is “effective antioxidant”. In addition, the α-glucosidase inhibitory entry in the series with α-glycosidase was “α-glucosidase inhibitory”.

`CC[C@H](CC[C@@H](C)[C@H]1CC[C@H]2[C@@H]3CC=C4C[C@@H](O[C@@H]5O[C@H](CO)[C@@H](O)[C@H](O)[C@H]5O)CC[C@]4(C)[C@H]3CC[C@]12C)C(C)C` [compound 295, daucosterol]: the antioxidant entry in series [2] (from P. candolleana) was “effective antioxidant”. In addition, the α-glucosidase inhibitory result in the series on α-glycosidase was “α-glucosidase inhibitory”. `CC[C@H](/C=C/[C@@H](C)[C@H]1CC[C@H]2[C@@H]3CC=C4C[C@@H](O)CC[C@]4(C)[C@H]3CC[C@]12C)C(C)C` [compound 296, stigmasterol]: the antioxidant entry in series [2] (from P. candolleana) is given as “effective antioxidant”. Moreover, the α-glucosidase inhibitory result with α-glycosidase is “α-glucosidase inhibitory”. Consider `CC(=O)C(C)CCC(C)C1CCC2(C)C3CCC4C(C)(C)CCCC4(C)C3CCC12C` (stereo not drawn) [compound 297, 24ζ-Methyl-5R-lanosta-25-one], for which the antioxidant property result in [2] is reported as “antioxidant property”. Consider `CC(=O)[C@H]1CC[C@H]2[C@@H]3CC=C4C[C@@H](O)CC[C@]4(C)[C@H]3CC[C@]12C` [compound 298, pregnenolone], for which, in [2], the antioxidant property result is given as “antioxidant property”. On to `O=C(O)C(O)Cc1ccccc1` (stereo not drawn) [compound 337, 3-phenyllactic acid], for which the AChE inhibition entry with AChE was “inhibiting”. Besides, the α-amylase inhibition result with α-amylase is “inhibiting”. Moreover, the antioxidant entry in series [2] (from P. anthriscoides) is “proven antioxidant”. Further, the α-glucosidase inhibition result in the series with α-glycosidase is listed as “inhibiting”. Moreover, the BChE inhibition result in the series on BChE is given as “inhibiting”. `O=C(O)CC(O)(CC(=O)O)C(=O)O` [compound 338, citric acid]: in the series with AChE, the AChE inhibition result is reported as “inhibiting”. The α-amylase inhibition result in the series on α-amylase was “inhibiting”. The antioxidant result in series [2] (from P. anthriscoides) is “proven antioxidant”. Moreover, the α-glucosidase inhibition result in the series with α-glycosidase is “inhibiting”. Also, in the series on BChE, the BChE inhibition result is given as “inhibiting”. As to `COc1c2ccoc2c(OC)c2oc(=O)ccc12` [isopimpinellin (274)], the “Effect on CYP 1A2” value with CYP-1A2 is on record as “Inhibitory effects on CYP 1A2”. On to `COc1c2occc2cc2ccc(=O)oc12` [methoxsalen (275)], for which, in the series on CYP-1A2, the “Effect on CYP 1A2” value is reported as “Inhibitory effects on CYP 1A2”. Consider p-anisaldehyde [compound 47], for which the DNA protection potential result with DNA is reported as “DNA protection potential”. In series [2], the antioxidant activity result was “antioxidant activity”. Also, the reproduction of pests result with pestiferous pests is “inhibiting the reproduction of pests”.

Regarding umbelliprenin [compound 276], in series [3], the skin whitening result is listed as “potential skin-whitening agent”.

Usually IC50 stands for the concentration needed to halve the response being measured.
